The text below walks through data of ChEMBL document CHEMBL1131722, “P1, P2'-linked macrocyclic amine derivatives as matrix metalloproteinase inhibitors” (Bioorg Med Chem Lett, 1999).

A word on the Ki: it is a measure of affinity in units of concentration, obtained from inhibition or displacement.

One assay has as its target Stromelysin-1 (Homo sapiens, UniProt P08254). The assay is described as follows: Inhibition of Matrix metalloprotease-3 (MMP-3).
The next assay deals with T1, Interstitial collagenase (Homo sapiens, UniProt P03956).
T1 sequence (P03956 whole entry): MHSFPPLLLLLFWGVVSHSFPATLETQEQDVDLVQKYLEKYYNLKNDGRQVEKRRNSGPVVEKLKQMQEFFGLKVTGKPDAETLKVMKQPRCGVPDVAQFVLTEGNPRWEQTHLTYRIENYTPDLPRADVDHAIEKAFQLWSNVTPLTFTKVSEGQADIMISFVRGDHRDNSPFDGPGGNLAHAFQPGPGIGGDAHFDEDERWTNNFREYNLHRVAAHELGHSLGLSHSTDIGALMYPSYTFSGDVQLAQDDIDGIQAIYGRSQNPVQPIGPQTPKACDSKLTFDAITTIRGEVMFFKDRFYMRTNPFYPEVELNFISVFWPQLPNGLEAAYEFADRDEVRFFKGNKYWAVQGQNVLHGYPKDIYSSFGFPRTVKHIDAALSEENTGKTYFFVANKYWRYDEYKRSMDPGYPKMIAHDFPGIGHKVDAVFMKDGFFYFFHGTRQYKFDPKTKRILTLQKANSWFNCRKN
Briefly: Inhibition of Matrix metalloprotease-1 (MMP-1).

In assay [1] the target is Matrix metalloproteinase-9 (Homo sapiens, UniProt P14780). Briefly: Inhibition of Matrix metalloprotease-9 (MMP-9).
Chain of Matrix metalloproteinase-9 (P14780 whole entry): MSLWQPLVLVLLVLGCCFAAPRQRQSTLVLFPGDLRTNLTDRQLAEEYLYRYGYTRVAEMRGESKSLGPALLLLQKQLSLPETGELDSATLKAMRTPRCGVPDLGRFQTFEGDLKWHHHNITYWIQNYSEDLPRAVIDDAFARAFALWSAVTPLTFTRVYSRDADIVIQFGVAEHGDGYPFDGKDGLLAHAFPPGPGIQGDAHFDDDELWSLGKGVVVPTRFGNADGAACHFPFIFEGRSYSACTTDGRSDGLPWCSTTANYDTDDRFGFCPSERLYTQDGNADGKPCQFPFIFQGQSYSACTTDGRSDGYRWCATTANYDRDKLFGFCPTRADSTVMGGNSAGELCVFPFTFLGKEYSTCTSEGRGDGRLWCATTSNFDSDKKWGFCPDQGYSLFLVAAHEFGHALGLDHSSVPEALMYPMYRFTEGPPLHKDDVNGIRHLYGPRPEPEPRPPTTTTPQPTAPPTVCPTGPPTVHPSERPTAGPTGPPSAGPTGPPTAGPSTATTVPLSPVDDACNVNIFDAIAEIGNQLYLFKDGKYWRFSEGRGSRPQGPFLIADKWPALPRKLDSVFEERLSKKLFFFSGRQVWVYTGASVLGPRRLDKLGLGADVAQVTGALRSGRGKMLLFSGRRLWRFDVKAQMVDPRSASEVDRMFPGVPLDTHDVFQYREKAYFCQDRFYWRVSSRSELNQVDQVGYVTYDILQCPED
The target of another assay is Neutrophil collagenase (Homo sapiens, UniProt P22894). The assay is described as follows: Inhibition of Matrix metalloprotease-8 (MMP-8).
Chain of Neutrophil collagenase (P22894 whole entry): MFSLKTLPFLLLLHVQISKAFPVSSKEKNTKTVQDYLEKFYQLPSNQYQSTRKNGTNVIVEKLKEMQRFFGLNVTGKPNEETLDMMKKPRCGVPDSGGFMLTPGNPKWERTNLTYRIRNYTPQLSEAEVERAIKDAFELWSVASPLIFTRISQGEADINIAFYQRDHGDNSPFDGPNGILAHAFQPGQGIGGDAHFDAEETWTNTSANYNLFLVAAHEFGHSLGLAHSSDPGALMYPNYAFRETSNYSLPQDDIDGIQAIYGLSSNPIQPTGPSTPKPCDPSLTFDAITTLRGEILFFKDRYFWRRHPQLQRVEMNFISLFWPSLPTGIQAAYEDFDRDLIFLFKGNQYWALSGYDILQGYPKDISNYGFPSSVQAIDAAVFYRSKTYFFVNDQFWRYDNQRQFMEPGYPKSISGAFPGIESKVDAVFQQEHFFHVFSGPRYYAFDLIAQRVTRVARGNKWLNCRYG

Chain of Stromelysin-1 (P08254 whole entry): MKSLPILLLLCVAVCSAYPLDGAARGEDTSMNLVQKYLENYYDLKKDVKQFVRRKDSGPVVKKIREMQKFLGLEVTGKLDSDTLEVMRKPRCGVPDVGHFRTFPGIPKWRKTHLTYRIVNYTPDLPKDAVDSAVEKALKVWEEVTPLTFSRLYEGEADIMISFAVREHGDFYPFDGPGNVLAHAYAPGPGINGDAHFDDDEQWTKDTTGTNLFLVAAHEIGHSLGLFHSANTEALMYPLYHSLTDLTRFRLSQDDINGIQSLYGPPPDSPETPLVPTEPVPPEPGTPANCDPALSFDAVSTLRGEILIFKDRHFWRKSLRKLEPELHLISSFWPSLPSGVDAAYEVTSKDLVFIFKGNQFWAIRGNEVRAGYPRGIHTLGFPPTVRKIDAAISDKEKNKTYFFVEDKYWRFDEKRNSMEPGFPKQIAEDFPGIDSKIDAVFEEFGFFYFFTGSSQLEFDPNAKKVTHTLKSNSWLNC

For the molecule `CNC(=O)[C@@H]1CCCN(C(C)=O)CCCCO[C@H](C(=O)NO)[C@@H](CCCc2ccccc2)C(=O)N1`, the values for the Ki (at Stromelysin-1; at Interstitial collagenase; in assay [1]) were 38 nM, 248 nM and 6 nM, respectively.
With `CNC(=O)[C@@H]1CCCNCCCCO[C@H](C(=O)NO)[C@@H](CCCc2ccccc2)C(=O)N1`, the Ki at Stromelysin-1 came to 265 nM; at Interstitial collagenase, 496 nM; at Neutrophil collagenase, 4 nM; in assay [1], 21 nM.
The matching figures for `CNC(=O)[C@@H]1CCCN(C(=O)OC(C)(C)C)CCCCO[C@H](C(=O)NO)[C@@H](CCCc2ccccc2)C(=O)N1`: 373 nM, 1070 nM, 13 nM and 19 nM.
On to `CNC(=O)[C@@H]1CCCN(S(=O)(=O)c2ccccc2)CCCCO[C@H](C(=O)NO)[C@@H](CCCc2ccccc2)C(=O)N1`, for which the Ki on Interstitial collagenase came out at 110 nM; in assay [1], 2 nM.
Consider `CNC(=O)[C@@H]1CCCN(C(C)=O)CC(C)CO[C@H](C(=O)NO)[C@@H](CCCc2ccccc2)C(=O)N1` (some centres not stated), for which the Ki on Stromelysin-1 amounted to 267 nM; on Interstitial collagenase, 440 nM; on Neutrophil collagenase, 7 nM; in assay [1], 13 nM.
